The compounds below were run against recombinant human integrin αvβ6 (Homo sapiens (Human), UniProt P06756+P18564) (assay: Solid phase integrin αvβ6 binding assay). Conditions: IC50 presented in four ranges; read-out: αvβ6 Inhibition IC50 (nM) - range.
Experimental: (§1) Microplates were coated with recombinant human integrin αvβ6 (2 µg/mL) in PBS (100 µL/well 25° C., overnight). The coating solution was removed, washed with wash buffer (0.05% Tween 20; 0.5 mM MnCl2; in 1x TBS). The plate was blocked with 200 µL/well of Block Buffer (1% BSA; 5% sucrose; 0.5 mM MnCl2; in 1x TBS) at 37° C. for 2 h. Dilutions of testing compounds and recombinant TGFβ1 LAP (0.67 µg/mL) in binding buffer (0.05% BSA; 2.5% sucrose; 0.5 mM MnCl2; in 1x TBS) were added. The plate was incubated for 2 hours at 25° C., washed, and incubated for 1 hour with Biotin-Anti-hLAP. Bound antibody was detected by peroxidase-conjugated streptavidin. The IC50 values for testing compounds were calculated by a four-parameter logistic regression.
The compounds tested were compound samples prepared according to procedures described in the Synthetic Examples section, with the stereochemical purity as indicated in the Examples.
as §1, with “A third series of exemplary compounds was selected for testing in the solid phase integrin αvβ6 binding assay. The compounds tested were compound samples prepared according to procedures described in the Synthetic Examples section, with the stereochemical purity as indicated in the Examples. As in Example B1, microplates” for “Microplates”

recombinant human integrin αvβ6, sequence (P06756 31-889): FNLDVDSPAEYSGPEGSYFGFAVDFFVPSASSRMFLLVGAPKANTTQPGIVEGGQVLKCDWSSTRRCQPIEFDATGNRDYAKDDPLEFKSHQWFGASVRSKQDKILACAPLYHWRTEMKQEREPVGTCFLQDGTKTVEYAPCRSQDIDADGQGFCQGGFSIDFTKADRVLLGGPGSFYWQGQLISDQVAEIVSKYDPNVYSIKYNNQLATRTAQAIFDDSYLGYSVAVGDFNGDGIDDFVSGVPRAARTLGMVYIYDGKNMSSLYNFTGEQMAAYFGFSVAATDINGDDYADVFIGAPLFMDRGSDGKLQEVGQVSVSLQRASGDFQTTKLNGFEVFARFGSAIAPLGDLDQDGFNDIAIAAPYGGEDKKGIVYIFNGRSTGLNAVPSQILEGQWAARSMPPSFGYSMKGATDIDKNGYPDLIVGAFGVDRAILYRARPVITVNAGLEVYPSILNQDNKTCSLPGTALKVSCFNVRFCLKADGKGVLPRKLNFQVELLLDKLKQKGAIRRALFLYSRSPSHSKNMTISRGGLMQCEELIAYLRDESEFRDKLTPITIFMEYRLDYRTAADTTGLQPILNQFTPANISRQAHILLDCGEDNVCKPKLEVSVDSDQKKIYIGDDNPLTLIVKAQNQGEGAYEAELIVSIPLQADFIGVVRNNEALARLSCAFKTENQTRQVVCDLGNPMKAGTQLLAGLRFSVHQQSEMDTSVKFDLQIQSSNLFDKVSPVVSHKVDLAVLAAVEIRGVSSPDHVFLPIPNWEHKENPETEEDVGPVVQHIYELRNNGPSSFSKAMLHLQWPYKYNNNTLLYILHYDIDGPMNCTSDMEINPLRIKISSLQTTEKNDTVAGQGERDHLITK
recombinant human integrin αvβ6, sequence (P06756 890-992 partner): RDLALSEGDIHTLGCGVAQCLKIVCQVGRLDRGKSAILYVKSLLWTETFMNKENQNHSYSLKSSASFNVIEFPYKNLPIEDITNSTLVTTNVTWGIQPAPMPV
recombinant human integrin αvβ6, sequence (P18564 22-707): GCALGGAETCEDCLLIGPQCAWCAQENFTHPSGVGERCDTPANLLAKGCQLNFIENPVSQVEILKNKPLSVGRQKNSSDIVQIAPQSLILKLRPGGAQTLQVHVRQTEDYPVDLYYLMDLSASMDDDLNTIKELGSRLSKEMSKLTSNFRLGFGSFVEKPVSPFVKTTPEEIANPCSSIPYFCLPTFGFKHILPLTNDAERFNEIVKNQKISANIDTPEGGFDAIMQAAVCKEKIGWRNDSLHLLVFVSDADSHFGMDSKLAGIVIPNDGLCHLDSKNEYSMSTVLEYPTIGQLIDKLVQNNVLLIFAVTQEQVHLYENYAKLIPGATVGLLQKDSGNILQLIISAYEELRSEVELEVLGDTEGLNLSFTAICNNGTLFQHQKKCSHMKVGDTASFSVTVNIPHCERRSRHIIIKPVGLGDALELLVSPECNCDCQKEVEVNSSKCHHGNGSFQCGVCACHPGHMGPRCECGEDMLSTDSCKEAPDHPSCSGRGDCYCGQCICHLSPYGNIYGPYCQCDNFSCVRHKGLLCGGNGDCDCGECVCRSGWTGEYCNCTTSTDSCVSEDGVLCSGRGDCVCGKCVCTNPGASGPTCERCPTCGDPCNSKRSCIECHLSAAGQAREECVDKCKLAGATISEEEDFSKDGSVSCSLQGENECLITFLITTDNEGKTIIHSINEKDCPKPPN

IC50 [nM]	Compound
50 to 250	O=C(O)[C@H](CCN(CCCCc1ccc2c(n1)NCCC2)CCC(F)F)Nc1ccnc(C(F)(F)F)n1 [compound 134]
< 50	CN(C)C(=O)CN(CCCCc1ccc2c(n1)NCCC2)CC[C@H](Nc1ncnc2c1cnn2C)C(=O)O [compound 140]
< 50	Cc1ncccc1OCCN(CCCCc1ccc2c(n1)NCCC2)CC[C@H](Nc1ncnc2cccnc12)C(=O)O [compound 54]
< 50	O=C(O)[C@H](CCN(CCCCc1ccc2c(n1)NCCC2)CCOc1ccccn1)Nc1ncnc2c(Cl)cccc12 [compound 48]
< 50	COCCN(CCCCc1ccc2c(n1)NCCC2)CC[C@H](Nc1ncnc2ccc(F)cc12)C(=O)O [compound 19]
250 to 1000	CO[C@H](C)CN(CCCCc1ccc2c(n1)NCCC2)CC[C@H](Nc1ccncn1)C(=O)O [compound 127]
< 50	O=C(O)[C@H](CCN(CCCF)CCCCc1ccc2c(n1)NCCC2)Nc1ncc(C(F)(F)F)cn1 [compound 137]
< 50	COCCN(CCCCc1ccc2c(n1)NCCC2)CC[C@H](Nc1cc(-n2cccn2)ncn1)C(=O)O [compound 44]
< 50	CS(=O)(=O)CCN(CCCCc1ccc2c(n1)NCCC2)CC[C@H](Nc1ncnc2ccccc12)C(=O)O [compound 27]
< 50	O=C(O)[C@H](CCN(CCCCc1ccc2c(n1)NCCC2)CCOc1ccccc1)Nc1cc(-c2ccccc2)ncn1 [compound 93]
< 50	COc1ccc2c(N[C@@H](CCN(CCCF)CCCCc3ccc4c(n3)NCCC4)C(=O)O)ncnc2c1 [compound 41]
> 1000	COCCN(CCCCc1ccc2c(n1)NCCC2)CC[C@H](Nc1nccc2ccccc12)C(=O)O [compound 34]
< 50	Cc1ccc(OCCN(CCCCc2ccc3c(n2)NCCC3)CC[C@H](Nc2ncnc3ccccc23)C(=O)O)cn1 [compound 59]
< 50	CO[C@H](C)CN(CCCCc1ccc2c(n1)NCCC2)CC[C@H](Nc1nccnc1C#N)C(=O)O [compound 76]
< 50	COC[C@@H](F)CN(CCCCc1ccc2c(n1)NCCC2)CC[C@H](Nc1nc(C)nc2cc(F)ccc12)C(=O)O [compound 32]
50 to 250	O=C(O)[C@H](CCN(CCCCc1ccc2c(n1)NCCC2)C1CC1)Nc1ncnc2[nH]ncc12 [compound 116]
< 50	COCCN(CCCCc1ccc2c(n1)NCCC2)CC[C@H](Nc1ncnc2c(C(F)(F)F)cccc12)C(=O)O [compound 15]
< 50	O=C(O)[C@H](CCN(CCCF)CCCCc1ccc2c(n1)NCCC2)Nc1ncnc2ccccc12 [compound 30]
< 50	Cc1nc(N[C@@H](CCN(CCCCc2ccc3c(n2)NCCC3)CCOc2cccnc2C)C(=O)O)c2ccc(F)cc2n1 [compound 53]
> 1000	O=C(O)[C@H](CCN(CCCCc1ccc2c(n1)NCCC2)CC(F)F)Nc1ncc(C(F)(F)F)cn1 [compound 95]
250 to 1000	CO[C@H](C)CN(CCCCc1ccc2c(n1)NCCC2)CC[C@H](Nc1ncc(C(F)(F)F)cn1)C(=O)O [compound 85]

IC50 [nM]	Compound
50 to 250	CO[C@H](C)CN(CCCCc1ccc2c(n1)NCCC2)CC[C@H](Nc1ncc(Br)cn1)C(=O)O [compound 86]
50 to 250	COCCN(CCCCc1ccc2c(n1)NCCC2)CC[C@H](Nc1ncnc2cc(Cl)ccc12)C(=O)O [compound 37]
< 50	COCCN(CCCCc1ccc2c(n1)NCCC2)CC[C@H](Nc1cc(C)nc(C(F)(F)F)n1)C(=O)O [compound 26]
50 to 250	CN(C)C(=O)CN(CCCCc1ccc2c(n1)NCCC2)CC[C@H](Nc1ncc(C(F)(F)F)cn1)C(=O)O [compound 141]
50 to 250	O=C(O)[C@H](CCN(CCCCc1ccc2c(n1)NCCC2)CCC(F)F)Nc1ncc(Br)cn1 [compound 131]
> 1000	O=C(O)[C@H](CCN(CCCCc1ccc2c(n1)NCCC2)CC(F)F)Nc1ncncc1-c1ccccc1 [compound 119]
< 50	CO[C@H](C)CN(CCCCc1ccc2c(n1)NCCC2)CC[C@H](Nc1nc(C)nc2cc(F)ccc12)C(=O)O [compound 65]
< 50	O=C(O)[C@H](CCN(CCCCc1ccc2c(n1)NCCC2)CCOc1ccc(F)cc1)Nc1ncc(C(F)(F)F)cn1 [compound 139]
< 50	CC(=O)NCCN(CCCCc1ccc2c(n1)NCCC2)CC[C@H](Nc1ncnc2ccccc12)C(=O)O [compound 63]
< 50	O=C(O)[C@H](CCN(CCCCc1ccc2c(n1)NCCC2)CCOc1ccccc1)Nc1ncc(C2CC2)cn1 [compound 117]
< 50	CO[C@H](C)CN(CCCCc1ccc2c(n1)NCCC2)CC[C@H](Nc1ccnc(-c2ccccc2)n1)C(=O)O [compound 73]
< 50	CO[C@H](C)CN(CCCCc1ccc2c(n1)NCCC2)CC[C@H](Nc1nc(-c2cccnc2)nc2ccccc12)C(=O)O [compound 100]
< 50	COC[C@@H](F)CN(CCCCc1ccc2c(n1)NCCC2)CC[C@H](Nc1ncnc2c1cnn2C)C(=O)O [compound 105]
< 50	O=C(O)[C@H](CCN(CCCCc1ccc2c(n1)NCCC2)CCOc1ccccn1)Nc1ncnc2ccccc12 [compound 49]
> 1000	N#Cc1cnc(N[C@@H](CCN(CCCCc2ccc3c(n2)NCCC3)CC(F)F)C(=O)O)nc1 [compound 118]
< 50	O=C(O)[C@H](CCN(CCCCc1ccc2c(n1)NCCC2)CCOc1ccccc1)Nc1ncc(C(F)(F)F)cn1 [compound 89]
250 to 1000	CS(=O)(=O)CCN(CCCCc1ccc2c(n1)NCCC2)CC[C@H](Nc1nc(-c2cccnc2)nc2ccccc12)C(=O)O [compound 107]
< 50	COCCN(CCCCc1ccc2c(n1)NCCC2)CC[C@H](Nc1ncnc2c(F)cccc12)C(=O)O [compound 20]
< 50	Cn1ncc2c(N[C@@H](CCN(CCCCc3ccc4c(n3)NCCC4)CCOc3ccc(F)cc3)C(=O)O)ncnc21 [compound 123]
< 50	O=C(O)[C@H](CCN(CCCCc1ccc2c(n1)NCCC2)CCOc1cncc(F)c1)Nc1ncnc2ccccc12 [compound 58]
< 50	COCCN(CCCCc1ccc2c(n1)NCCC2)CC[C@H](Nc1ccnc(C(F)(F)F)n1)C(=O)O [compound 24]

IC50 [nM]	Compound
250 to 1000	CO[C@H](C)CN(CCCCc1ccc2c(n1)NCCC2)CC[C@H](Nc1ccnc(C(F)(F)F)n1)C(=O)O [compound 87]
< 50	COc1cccc2c(N[C@@H](CCN(CCCF)CCCCc3ccc4c(n3)NCCC4)C(=O)O)ncnc12 [compound 43]
< 50	CO[C@H](C)CN(CCCCc1ccc2c(n1)NCCC2)CC[C@H](Nc1ncncc1-c1ccccc1)C(=O)O [compound 81]
< 50	CN(C)C(=O)CN(CCCCc1ccc2c(n1)NCCC2)CC[C@H](Nc1ccnc(C(F)(F)F)n1)C(=O)O [compound 145]
< 50	CO[C@H](C)CN(CCCCc1ccc2c(n1)NCCC2)CC[C@H](Nc1cc(-n2cccn2)ncn1)C(=O)O [compound 77]
> 1000	CS(=O)(=O)CCN(CCCCc1ccc2c(n1)NCCC2)CC[C@H](Nc1ncc(C(F)(F)F)cn1)C(=O)O [compound 102]
< 50	COC[C@@H](F)CN(CCCCc1ccc2c(n1)NCCC2)CC[C@H](Nc1ncncc1-c1ccccc1)C(=O)O [compound 110]
< 50	Cc1nc(N[C@@H](CCN(CCCCc2ccc3c(n2)NCCC3)CCOc2ccc(F)cc2)C(=O)O)c2ccc(F)cc2n1 [compound 40]
< 50	COCCN(CCCCc1ccc2c(n1)NCCC2)CC[C@H](Nc1cc(C(F)F)ncn1)C(=O)O [compound 23]
50 to 250	O=C(O)[C@H](CCN(CCCCc1ccc2c(n1)NCCC2)C1CC1)Nc1ncnc2ccccc12 [compound 6]
< 50	COC[C@@H](F)CN(CCCCc1ccc2c(n1)NCCC2)CC[C@H](Nc1ncnc2ccccc12)C(=O)O [compound 31]
< 50	COCCN(CCCCc1ccc2c(n1)NCCC2)CCC(Nc1ncnc2ncccc12)C(=O)O (stereo not shown) [compound 11]
< 50	Cc1nc(N[C@@H](CCN(CCCCc2ccc3c(n2)NCCC3)CCOC2CC2(F)F)C(=O)O)c2ccc(F)cc2n1 (stereo partly shown) [compound 42]
< 50	O=C(O)[C@H](CCN(CCCCc1ccc2c(n1)NCCC2)CCOc1ccccc1)Nc1ccnc(C(F)(F)F)n1 [compound 92]
< 50	O=C(O)[C@H](CCN(CCCCc1ccc2c(n1)NCCC2)CCOC(F)F)Nc1ncnc2ccccc12 [compound 35]
< 50	O=C(O)[C@H](CCN(CCCCc1ccc2c(n1)NCCC2)CCOc1cncc(F)c1)Nc1ncnc2cccnc12 [compound 60]
< 50	CO[C@H](C)CN(CCCCc1ccc2c(n1)NCCC2)CC[C@H](Nc1ncnc2cn[nH]c12)C(=O)O [compound 79]
> 1000	O=C(O)[C@H](CCN(CCCCc1ccc2c(n1)NCCC2)CC(F)F)Nc1cc(-c2ccccc2)ncn1 [compound 142]
< 50	Cc1cc(C)n(CCN(CCCCc2ccc3c(n2)NCCC3)CC[C@H](Nc2ncnc3ccccc23)C(=O)O)n1 [compound 45]
